The numbers were not newly measured in article PMC8288134, “Synthesis, potential antitumor activity, cell cycle analysis, and multitarget mechanisms of novel hydrazones incorporating a 4-methylsulfonylbenzene scaffold: a molecular docking study” (Journal of Enzyme Inhibition and Medicinal Chemistry, 2021), which cites them from elsewhere.

The test system of one data set is COLO 205. Set-up: method as in https://dtp.cancer.gov/dtpstandard/dwindex/index.jsp. The conditions noted are these: reference drugs, ref https://dtp.cancer.gov/dtpstandard/dwindex/index.jsp; cited from earlier work.
For the next data set, the system named is MOLT-4. On the set-up: method as in https://dtp.cancer.gov/dtpstandard/dwindex/index.jsp. As to conditions: reference drugs, ref https://dtp.cancer.gov/dtpstandard/dwindex/index.jsp; cited from earlier work.
The next data set relates to SK-MEL-5. On the set-up: method as in https://dtp.cancer.gov/dtpstandard/dwindex/index.jsp. As to conditions: reference drugs, ref https://dtp.cancer.gov/dtpstandard/dwindex/index.jsp; cited from earlier work.
A further data set has as its system BT-549. On the set-up: method as in https://dtp.cancer.gov/dtpstandard/dwindex/index.jsp. The conditions noted are these: reference drugs, ref https://dtp.cancer.gov/dtpstandard/dwindex/index.jsp; cited from earlier work.
Another data set relates to RXF 393. On the set-up: method as in https://dtp.cancer.gov/dtpstandard/dwindex/index.jsp. As to conditions: reference drugs, ref https://dtp.cancer.gov/dtpstandard/dwindex/index.jsp; cited from earlier work.
The subject of another data set is OVCAR-8. On the set-up: method as in https://dtp.cancer.gov/dtpstandard/dwindex/index.jsp. As to conditions: reference drugs, ref https://dtp.cancer.gov/dtpstandard/dwindex/index.jsp; cited from earlier work.
For the next data set, the system named is EKVX. On the set-up: method as in https://dtp.cancer.gov/dtpstandard/dwindex/index.jsp. As to conditions: reference drugs, ref https://dtp.cancer.gov/dtpstandard/dwindex/index.jsp; cited from earlier work.
For the next data set, the system named is PRMI-8226. Set-up: method as in https://dtp.cancer.gov/dtpstandard/dwindex/index.jsp. As to conditions: reference drugs, ref https://dtp.cancer.gov/dtpstandard/dwindex/index.jsp; cited from earlier work.
The next data set deals with HCC-2998. On the set-up: method as in https://dtp.cancer.gov/dtpstandard/dwindex/index.jsp. As to conditions: reference drugs, ref https://dtp.cancer.gov/dtpstandard/dwindex/index.jsp; cited from earlier work.
Data set [1] relates to breast cancer tumour cell lines. The conditions noted are these: cited from earlier work; for GI50: read-out: GI50 (subpanel average), reference drugs, ref https://dtp.cancer.gov/dtpstandard/dwindex/index.jsp; for TGI (subpanel average): reference drugs, ref https://dtp.cancer.gov/dtpstandard/dwindex/index.jsp; for CC50: read-out: LC50 (subpanel average), reference drugs, ref https://dtp.cancer.gov/dtpstandard/dwindex/index.jsp.

The next data set deals with MDA-MB-435. Set-up: method as in https://dtp.cancer.gov/dtpstandard/dwindex/index.jsp. The conditions noted are these: reference drugs, ref https://dtp.cancer.gov/dtpstandard/dwindex/index.jsp; cited from earlier work.
A further data set concerns HL-60(TB). Set-up: method as in https://dtp.cancer.gov/dtpstandard/dwindex/index.jsp. As to conditions: reference drugs, ref https://dtp.cancer.gov/dtpstandard/dwindex/index.jsp; cited from earlier work.
The test system of the next data set is NCI-H460. Set-up: method as in https://dtp.cancer.gov/dtpstandard/dwindex/index.jsp. The conditions noted are these: reference drugs, ref https://dtp.cancer.gov/dtpstandard/dwindex/index.jsp; cited from earlier work.
Another data set deals with MDA-MB-231/ATCC. Set-up: method as in https://dtp.cancer.gov/dtpstandard/dwindex/index.jsp. As to conditions: reference drugs, ref https://dtp.cancer.gov/dtpstandard/dwindex/index.jsp; cited from earlier work.
A further data set deals with TK-10. Set-up: method as in https://dtp.cancer.gov/dtpstandard/dwindex/index.jsp. The conditions noted are these: reference drugs, ref https://dtp.cancer.gov/dtpstandard/dwindex/index.jsp; cited from earlier work.
A further data set has as its system CCRF-CEM. On the set-up: method as in https://dtp.cancer.gov/dtpstandard/dwindex/index.jsp. As to conditions: reference drugs, ref https://dtp.cancer.gov/dtpstandard/dwindex/index.jsp; cited from earlier work.
The test system of a further data set is HOP-92. On the set-up: method as in https://dtp.cancer.gov/dtpstandard/dwindex/index.jsp. As to conditions: reference drugs, ref https://dtp.cancer.gov/dtpstandard/dwindex/index.jsp; cited from earlier work.

Each structure is given as a SMILES string.

Consider `Cc1ccc(-c2cc(C(F)(F)F)nn2-c2ccc(S(N)(=O)=O)cc2)cc1` [Celecoxib, celecoxib], for which the GI50 was 15.8 µM in the data set on COLO 205; 15.8 µM in the data set with MOLT-4; 15.8 µM in the data set on SK-MEL-5; 19.9 µM in the data set on BT-549; 15.8 µM in the data set on RXF 393; 19.9 µM in the data set with OVCAR-8. In addition, the GI50 in the data set on EKVX was 19.9 µM; in the data set with PRMI-8226 it was 3.98 µM; with HCC-2998, 15.8 µM; in data set [1], 17.5 µM; in the data set with MDA-MB-435, 15.8 µM; in the data set on HL-60(TB), 15.8 µM. Besides, the GI50 with NCI-H460 is 15.8 µM; in the data set with MDA-MB-231/ATCC, 15.8 µM; in the data set with TK-10, 19.9 µM; in the data set with CCRF-CEM, 12.6 µM. The “TGI (subpanel average)” value in [1] was 34.89 µM.
With `C#Cc1cccc(Nc2ncnc3cc(OCCOC)c(OCCOC)cc23)c1` [Erlotinib, erlotinib], the GI50 is 50.1 µM with COLO 205; 25.1 µM in the data set on MOLT-4; 31.6 µM in the data set with BT-549; 3.98 µM in the data set on RXF 393; 7.94 µM in the data set with OVCAR-8; 0.199 µM in the data set on EKVX. The GI50 in the data set with PRMI-8226 is 25.1 µM; in the data set on HCC-2998 it was 79.4 µM; in data set [1], 24.7 µM; in the data set on MDA-MB-435, 19.9 µM; in the data set with HOP-92, 3.98 µM; with HL-60(TB) it was 25.1 µM. Further, the GI50 in the data set on NCI-H460 was 6.31 µM; with MDA-MB-231/ATCC, 6.31 µM; in the data set on TK-10 it was 0.251 µM; in the data set on CCRF-CEM it was 50.1 µM. Moreover, the CC50 in data set [1] is 96.4 µM.
Consider `COc1cc2ncnc(Nc3ccc(F)c(Cl)c3)c2cc1OCCCN1CCOCC1` [Gefitinib, gefitinib], for which the GI50 in the data set on COLO 205 is 7.94 µM; with MOLT-4, 2 µM; with SK-MEL-5, 3.16 µM; in the data set with BT-549 it was 3.16 µM; in the data set with RXF 393, 3.16 µM; in the data set on HCC-2998, 2.51 µM. For the same compound, the GI50 was 4.67 µM in data set [1]; 3.16 µM in the data set with MDA-MB-435; 0.316 µM with HOP-92; 1 µM with HL-60(TB); 3.16 µM in the data set with NCI-H460; 3.98 µM with MDA-MB-231/ATCC. Also, the values for the GI50 with TK-10 and with CCRF-CEM were 0.794 µM and 0.398 µM, respectively. Moreover, in data set [1], the “TGI (subpanel average)” value was 18.62 µM.
As to `CNC(=O)c1cc(Oc2ccc(NC(=O)Nc3ccc(Cl)c(C(F)(F)F)c3)cc2)ccn1` [Sorafenib, sorafenib], the GI50 with COLO 205 is 1.99 µM; in the data set on MOLT-4, 3.16 µM; in the data set with BT-549, 3.16 µM; with RXF 393, 2.51 µM; in the data set with OVCAR-8 it was 3.16 µM; in the data set with EKVX, 2.51 µM. Moreover, the GI50 is 3.16 µM in the data set with HCC-2998; 2.51 µM in the data set on NCI-H460; 1.26 µM in the data set with MDA-MB-231/ATCC; 3.98 µM in the data set with TK-10; 1.99 µM in the data set with CCRF-CEM. For the same compound, the CC50 in data set [1] is 57.3 µM. The “TGI (subpanel average)” value in [1] is on record as 9.35 µM.
For `CS(=O)(=O)c1ccc(C(=O)Nc2ccc(Cl)c(-c3ccccn3)c2)c(Cl)c1` [Vismodegib, vismodegib], the GI50 in the data set on COLO 205 is 39.8 µM; in the data set with MOLT-4 it was 31.6 µM; in the data set with SK-MEL-5, 25.1 µM; in the data set with RXF 393 it was 25.1 µM; in the data set on OVCAR-8, 31.6 µM; in the data set with EKVX, 39.8 µM. Also, the GI50 in the data set with PRMI-8226 was 31.6 µM; in the data set with HCC-2998 it was 39.8 µM; in the data set with MDA-MB-435 it was 31.6 µM; in the data set with HOP-92 it was 25.1 µM; in the data set on HL-60(TB), 31.6 µM; with NCI-H460, 39.8 µM. Moreover, the GI50 in the data set on MDA-MB-231/ATCC is 19.9 µM; in the data set on TK-10, 63.1 µM; in the data set on CCRF-CEM it was 31.6 µM.
